Data as given in article PMC11831560, “Development of the Pyrido[2,3-d]pyrimidin-7(8H)-one Scaffold toward Potent and Selective NUAK1 Inhibitors” (ACS Medicinal Chemistry Letters, 2025).
Where “and” joins values, the source holds several entries; their conditions need not be identical. Identical values can stand only once.

Tests used:
NUAK2 = biological target: T1, NUAK2 (Homo sapiens, UniProt Q9H093); assay: ADP-Glo biochemical assay NUAK2; conditions: for NUAK2 pIC50 / IC50: ADP-Glo assay; for IC50: read-out: NUAK2 pIC50 (converted)
T1 construct: purchased MRC PPU
T1 sequence (Q9H093 1-628): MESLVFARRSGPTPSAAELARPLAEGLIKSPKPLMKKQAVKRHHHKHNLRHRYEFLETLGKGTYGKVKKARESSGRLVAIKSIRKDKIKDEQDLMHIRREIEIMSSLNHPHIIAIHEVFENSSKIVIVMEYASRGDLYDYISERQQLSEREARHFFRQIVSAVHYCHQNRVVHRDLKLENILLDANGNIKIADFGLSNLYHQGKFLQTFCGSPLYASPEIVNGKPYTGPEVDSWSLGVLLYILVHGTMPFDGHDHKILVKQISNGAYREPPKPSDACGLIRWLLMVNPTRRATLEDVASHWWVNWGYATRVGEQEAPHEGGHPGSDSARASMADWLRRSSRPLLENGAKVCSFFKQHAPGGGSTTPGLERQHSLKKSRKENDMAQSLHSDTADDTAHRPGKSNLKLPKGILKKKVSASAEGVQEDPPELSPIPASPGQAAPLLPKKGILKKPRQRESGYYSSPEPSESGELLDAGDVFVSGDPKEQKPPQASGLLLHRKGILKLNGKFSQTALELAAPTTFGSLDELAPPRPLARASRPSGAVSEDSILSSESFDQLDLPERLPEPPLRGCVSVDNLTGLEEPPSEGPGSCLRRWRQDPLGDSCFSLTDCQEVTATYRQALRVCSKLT
Method: (§1) Biological experimental procedures
(§2) ADP-Glo biochemical assays
(§3) Protein kinase activity in the presence of inhibitor compounds was determined by ADP-Glo assay (Promega), as previously described.1,2 Compounds were serialised using a Labcyte Echo 520 and transferred to 384 well plates (Greiner 784201) followed by the addition 5 µL of substrate containing peptide and ATP at Km in buffer (see Table S6). 5 µL of purified protein was added and the plate was incubated for 60 minutes at room temperature (ng/well; see Table S6). 3 µL of assay mixture was transferred using an Integra Viaflo384 into a white low volume plate (Greiner 781904) prior to the addition of 3 µL of ADP-Glo Reagent™ for a further 40 minute incubation. After incubation with 6 µL of Kinase Detection Reagent for 30 minutes, plate luminescence was read (Pherastar FSX, BMG […]
(§4) 30 mM HEPES pH7.4, 3 mM MgCl2, 3 mM MnCl2, 1.2 mM DTT, 0.01% CHAPS
(§5) Table S6: Conditions for protein kinase ADP-Glo assays
(§6) ATP AT Peptide Peptide Enzyme Enzyme Assay Buffe Min.
(§7) Protein conc. P Peptide name conc. supplier amount supplier vol. r na […]
(§8) NUAK1 µM µM Sakamototide 50 µM Merck 6.7 ng PPU 10 µl A 6
(§9) A µM µM Sakamototide 100 µM Merck 1 ng PPU 10 µl B 2 […]
(§10) aMin. n: Minimum number of technical replicates per compound

[1] = Microsomal stability, mouse; type: in vitro ADME; conditions: mouse liver microsomes; read-out: MLM t1/2
Method: All single point assay determinations carried out in duplicate.
ADMET and PK experimental methods
Microsomal stability: analysis was performed by Cyprotex Discovery. […]

CDK2-Cyclin A = CDK2-Cyclin A (Homo sapiens, UniProt P24941); assay: Z′-LYTE screening assay (Thermo Fisher); type: biochemical; design: purchased Thermo Fisher Scientific; conditions: single point at 1 μM; read-out: CDK2 % Inh.
Text: Activity pIC50 values and standard error of the mean (SEM) were estimated using a 4-parameter fit (Dotmatics). The SEM for all reported data was 0.2 or lower. See Experimental Procedures for minimum number of replicates per compound. Each experiment included a Standard compound whose pIC50 value was compared to a quality control chart. If the Standard pIC50 value fell outside the range of pIC50 +/-3 standard deviation, then the experiment was invalidated.
CDK2/cyclin A: Z′-LYTE™ screening assay performed by Thermo Fisher Scientific: The 2X CDK2/cyclin A / Ser/Thr 12 mixture is prepared in 50 mM HEPES pH 7.5, 0.01% BRIJ-35, 10 mM MgCl2, 1 mM EGTA. The final 10 µL Kinase Reaction consists of 1.22 - 10.3 ng CDK2/cyclin A and 2 µM Ser/Thr 12 in 50 mM HEPES pH 7.5, 0.01% BRIJ-35, 10 mM MgCl2, 1 mM EGTA. After the 1 hour Kinase Reaction incubation, 5 µL of a 1:4096 dilution of Development Reagent A is added. […]

MARK4 = biological target: T2, MARK4 (Homo sapiens, UniProt Q96L34); assay: ADP-Glo biochemical assay MARK4; conditions: for MARK4 pIC50 / IC50: ADP-Glo assay; for IC50: read-out: MARK4 pIC50 (converted)
T2 construct: purchased MRC PPU
T2 sequence (Q96L34 1-752): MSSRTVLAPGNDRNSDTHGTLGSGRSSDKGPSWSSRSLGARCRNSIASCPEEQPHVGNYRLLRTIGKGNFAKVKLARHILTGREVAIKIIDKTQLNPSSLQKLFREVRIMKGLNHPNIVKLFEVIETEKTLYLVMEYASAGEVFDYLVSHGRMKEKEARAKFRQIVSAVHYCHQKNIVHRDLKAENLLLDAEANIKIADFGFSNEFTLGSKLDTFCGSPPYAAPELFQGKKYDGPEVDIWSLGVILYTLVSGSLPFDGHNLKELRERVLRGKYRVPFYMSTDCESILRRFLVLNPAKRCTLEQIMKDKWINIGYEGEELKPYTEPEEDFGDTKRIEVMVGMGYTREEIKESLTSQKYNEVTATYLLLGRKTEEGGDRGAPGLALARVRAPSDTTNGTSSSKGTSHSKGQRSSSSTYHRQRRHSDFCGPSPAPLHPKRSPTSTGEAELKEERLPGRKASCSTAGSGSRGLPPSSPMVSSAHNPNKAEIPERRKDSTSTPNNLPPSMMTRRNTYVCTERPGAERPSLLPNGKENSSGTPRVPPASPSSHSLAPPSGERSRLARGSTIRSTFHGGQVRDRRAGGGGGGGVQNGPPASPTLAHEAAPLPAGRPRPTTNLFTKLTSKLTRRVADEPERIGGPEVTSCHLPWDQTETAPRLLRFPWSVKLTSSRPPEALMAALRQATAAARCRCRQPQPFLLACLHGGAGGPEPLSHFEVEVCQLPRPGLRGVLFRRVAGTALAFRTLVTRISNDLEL
Method: as §1, §2, §3, §4, §5, §6, §7, §8, §9, §10

Row | SMILES | IC50 (NUAK2) [nM] | MARK4 pIC50 (MARK4) | MARK4 Fold selectivity IC50/NUAK1 IC50 (MARK4) [fold] | IC50 (MARK4) [nM] | half-life at 1 µM [1] [min] | NUAK2 pIC50 (NUAK2) | NUAK2 Fold selectivity IC50/NUAK1 IC50 (NUAK2) [fold] | half-life at 0.75 h, 1 µM [1] [min] | inhibition at 1 µM (CDK2-Cyclin A) [%]
1 | Cc1cc(=O)n(C2CCCC2)c2nc(Nc3ccc(N4CC5CC(C4)N5C)cc3)ncc12 [Compound 9] | 14.8 | – | – | – | – | 7.8 | 3 | 20.9 | 38
2 | CN1C2CC1CN(c1ccc(Nc3ncc4cc(C#N)c(=O)n(C5CCCC5)c4n3)cc1)C2 [Compound 10] | – | – | – | – | – | 7.01 and 7.0 | 7 | 33.1 | 94
3 | CN1C2CC1CN(c1ccc(Nc3ncc4ccn(CC5CCOCC5)c4n3)cc1)C2 [Compound 24] | 26.9 | 4.9 | 3981 | – | – | 7.6 | 9 | 21.4 | 29
4 | Cc1cc(=O)n(C(C)C)c2nc(Nc3ccc(N4CC5CC(C4)N5C)cc3)ncc12 [Compound 20] | 69.2 | – | – | – | – | 7.2 | 3 | 79.9 | 17
5 | CN1C2CC1CN(c1ccc(Nc3ncc4ccn(CC5CCCO5)c4n3)cc1)C2 (stereo not shown) [Compound 28] | 53.7 | – | 1175 | 6460 | 17 | – | 10 | – | –

Further lines, with some results ahead:

Row | IC50 (NUAK2) [nM] | MARK4 pIC50 (MARK4) | MARK4 Fold selectivity IC50/NUAK1 IC50 (MARK4) [fold] | IC50 (MARK4) [nM] | half-life at 1 µM [1] [min] | SMILES | NUAK2 pIC50 (NUAK2) | NUAK2 Fold selectivity IC50/NUAK1 IC50 (NUAK2) [fold] | half-life at 0.75 h, 1 µM [1] [min] | inhibition at 1 µM (CDK2-Cyclin A) [%]
6 | 28.2 | 5.4 | 871 | – | – | Cc1cc(=O)n(C2CCCC2)c2nc(Nc3ccc(N4CCN(C)CC4)cc3)ncc12 [Compound 4] | 7.6 | 6 | 6.2 | 57
7 | 12.3 | – | 776 | 2630 | 8.4 | CC(C)N1CCN(c2ccc(Nc3ncc4ccn(CC5CCCO5)c4n3)cc2)CC1 (stereo not shown) [Compound 27] | – | 4 | – | –
8 | 43.7 | 5.6 | 513 | 2340 | – | CC(C)N1CCN(c2ccc(Nc3ncc4ccn(C5CCCC5)c4n3)cc2)CC1 [Compound 8] | 7.4 | 10 | 15.1 | 84
9 | 141 | 5.19 and 5.2 | 1549 | – | – | CC(C)N1CCN(c2ccc(Nc3ncc4c(n3)N(C3CCCC3)C(=O)C4)cc2)CC1 [Compound 7] | 6.9 | 34 | 9.5 | 32
10 | 5.62 | 5.02 and 5.0 | 363 | – | 8 | CN1CCN(c2ccc(Nc3ncc4cc(C#N)c(=O)n(C5CCCC5)c4n3)cc2)CC1 [Compound 3, Narazaciclib, reference compound] | 8.3 | – | 8.4 | –
11 | 38.9 | – | > 4700 | > 25100 | 14.8 | CC(C)N1CCN(c2ccc(Nc3ncc4ccn(CC5CCOC(C)(C)C5)c4n3)cc2)CC1 (stereo not shown) [Compound 26] | – | 14 | – | –
